The subject of this assay is action of testosterone propionate (TP) on the growth of the seminal vesicle and prostate. In words: Antiandrogenic activity: inhibition of testosterone propionate (TP) action on accessory genital gland growth in castrated immature male rats. In kind it is in vivo, rat. The conditions noted are these: for Effects of testosterone propionate, TP, on the prostate and seminal vesicle (in words): castrated immature male rats, TP + compound; for Inhibition of the action of testosterone propionate (TP) on the growth of the prostate / Inhibition of the action of testosterone propionate (TP) on the growth of the seminal vesicle: sexually immature castrated male rats, TP 0.1 mg/animal/day s.c. + 5α-reductase inhibitor 1 mg/animal/day s.c., 7 days, difference vehicle controls and TP controls = 100%. As for the experimental part:
Evaluation of antiandrogenic activity of the compounds of the invention was performed in castrated male rats (see FIGS. 1 to 5/table). Castrated immature male rats were treated for 7 days with testosterone propionate (TP) and the substances of the invention (0.1 mg of TP alone and/or 1 mg of 5α-reductase inhibitor/animal/day, s.s., n=5–10/group). The treatment with TP caused a severe increase in weight of the accessory genital glands (prostate and seminal vesicle). In the animals treated with the vehicle and with 5α-reductase inhibitor alone, the weights of the examined organs remained at low values. The substances of the invention exerted an inhibitory effect in the test systems selected. […] [table]

`CN1C(=O)CC[C@]2(C)C3CC[C@]4(C)/C(=C/Cl)CCC4C3CC[C@@H]12` (stereo partly drawn) [J 1924]: the “Effects of testosterone propionate, TP, on the prostate and seminal vesicle (in words)” value is on record as “appreciably reduced”; the “Inhibition of the action of testosterone propionate (TP) on the growth of the prostate” value came to 39%; the “Inhibition of the action of testosterone propionate (TP) on the growth of the seminal vesicle” value amounted to 41%.
Regarding `CN1C(=O)CC[C@@H]2C3CC[C@]4(C)/C(=C/Cl)CCC4C3CC[C@H]21` (stereo partly drawn) [J 1879], the “Effects of testosterone propionate, TP, on the prostate and seminal vesicle (in words)” value is reported as “appreciably reduced”; the “Inhibition of the action of testosterone propionate (TP) on the growth of the prostate” value is given as 34%; the “Inhibition of the action of testosterone propionate (TP) on the growth of the seminal vesicle” value is on record as 25%.
